The text below walks through data of BindingDB's records for doi:10.1021/acschembio.6b00304 (Icahn School of Medicine At Mount Sinai, 2016).

Usually IC50 stands for the point on the concentration scale where inhibition reaches its midpoint. Read a high IC50 as lower potency.

In this assay the target is T1, Solute carrier family 2, facilitated glucose transporter member 1 (Homo sapiens, UniProt P11166).
T1 sequence (P11166 whole entry): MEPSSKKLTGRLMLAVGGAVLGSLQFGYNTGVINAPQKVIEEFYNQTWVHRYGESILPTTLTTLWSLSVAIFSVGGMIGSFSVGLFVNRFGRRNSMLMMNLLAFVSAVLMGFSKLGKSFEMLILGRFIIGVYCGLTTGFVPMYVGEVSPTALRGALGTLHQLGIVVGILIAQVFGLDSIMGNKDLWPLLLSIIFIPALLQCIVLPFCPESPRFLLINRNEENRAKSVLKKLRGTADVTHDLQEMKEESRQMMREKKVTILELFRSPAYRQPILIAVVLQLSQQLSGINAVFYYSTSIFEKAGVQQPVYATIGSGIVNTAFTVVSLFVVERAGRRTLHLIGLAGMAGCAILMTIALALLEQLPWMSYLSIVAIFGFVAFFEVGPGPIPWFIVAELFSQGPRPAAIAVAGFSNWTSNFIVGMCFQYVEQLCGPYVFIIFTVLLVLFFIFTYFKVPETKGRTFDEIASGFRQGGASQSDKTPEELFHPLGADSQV
Nature of the assay: [3H]-2-Deoxy-D-glucose ([3H]-2-DG) Uptake Assay. The protocol:
The stably transfected CHO cells were seeded in poly 24-well plates and were grown to 80−90% confluence. […] The known hGLUT1 inhibitor phloretin (Accela ChemBio, San Diego, CA) was included as a positive control. […] Compounds were obtained from the National Cancer Institute (NCI) or purchased from commercial vendors. The reaction was terminated by washing cells twice with ice-cold PBS, followed by the addition of 200 μL of lysis buffer (0.1% (w/v) SDS, 0.1 N NaOH).Intracellular radioactivity was determined by scintillation counting.
For `O=c1[nH]c(=O)c2ncn(-c3ccccc3)c2[nH]1` [PUG-2], the IC50 came to 58.6 µM.
With `NNc1nc(NCc2ccco2)c2nc[nH]c2n1` [PUG-3] the figure was 27.1 µM; with `c1ccc(CNc2ncnc3n[nH]nc23)cc1` [PUG-4], 30 µM; with `O=C(CCc1ccc(O)cc1)c1c(O)cc(O)cc1O[C@H]1O[C@@H](CO)[C@H](O)[C@@H](O)[C@@H]1O` [PUG-5 (Phlorizin)], 23 µM.
With `CC[C@@H]1O[C@H](c2cc(O)cc(/C=C/c3ccc(O)c(O)c3)c2)[C@@H](O)[C@H](O)[C@H]1O` [PUG-6] the figure was 37.9 µM; with `O=c1[nH]ncc2c1Sc1cn[nH]c(=O)c1S2` [PUG-7], 11.8 µM.
The result for `O=c1[nH][nH]c(=O)c2[nH]cnc12` [PUG-8] reads 22.5 µM.
